Source: patent US10206902B2, “Mono- or di-substituted indoles as dengue viral replication inhibitors” (priority 2014, dated 2019)

What was measured:
Type in all cases: cell-based
Vero cells = test: in vitro; details: African green monkey
Protocol: (§1) In parallel, the toxicity of the compounds was assessed on the same plates. Once the read-out for the eGFP signal was done, 10 μL of resazurin, a cell viability stain, was added to all wells of the 384-well plates. The resazurin assay is based on the reduction of the blue resazurin by NADH, produced by the cells, into the highly fluorescent product, resorufin. The formation of pink fluorescent resorufin is directly related to the number of viable cells in the well. The plates were incubated for an additional 5 hours in a fully humidified incubator (37° C., 5% CO2). Next, the plates were measured on an Infinite reader (Tecan) using an excitation wavelength of 530 nm. The half maximal cytotoxic concentration (CO50) was also determined, defined as the concentration required to reduce the resazurin conversion by 50% compared to that of the cell control wells (Table 1). Finally, the selectivity index (SI) was determined for the compounds, which was calculated as followed: SI=CC50/EC50.

in vitro [1] = details: African green monkey
Protocol: The antiviral activity of the compounds of the invention was tested against DENV-1 strain TC974#666 (NCPV), DENV-2 strain 16681, DENV-3 strain H87 (NCPV) and DENV-4 strains H241 (NCPV) and EDEN (SG/06K2270DK1/2005; GenBank accession number QG398256) in a RT-qPCR assay. Therefore, Vero cells were infected with either DENV-1, or -2, or -3, or -4 in the presence or absence of test compounds. At day 3 post-infection, the cells were lysed and cell lysates were used to prepare cDNA of both a viral target (the 3′UTR of DENV; table 2) and a cellular reference gene (β-actin, table 2). Subsequently, a duplex real time PCR was performed on a Lightcycler480 instrument. The generated Cp value is inversely proportional to the amount of RNA expression of these targets. Inhibition of DENV replication by a test compound result in a shift of Cp's for the 3′UTR gene. On the other hand, if a test compound is toxic to the cells, a similar effect on β-actin expression will be observed. The comparative ΔΔCp method is used to calculate EC50, which is based on the relative gene expression of the target gene (3′UTR) normalized with the cellular housekeeping gene (β-actin). In addition, CC50 values were determined based on the Cp values acquired for the housekeeping gene β-actin.
The culture medium consisted of minimal essential medium supplemented with 2% of heat-inactivated fetal calf serum, 0.04% gentamycin (50 mg/mL) and 2 mM of L-glutamine. Vero cells, obtained from ECACC, were suspended in culture medium and 75 μL/well was added in 96-well plates (10000 cells/well), which already contain the antiviral compounds. Typically, these plates contain a 4-fold serial dilution of 9 dilution steps of the test compound at 200 times the final concentration in 100% DMSO (500 nL; final concentration range: 25 μM-0.00038 μM). In addition, each plate contains wells which are assigned as virus controls (containing cells and virus in the absence of compound) and cell controls (containing cells in the absence of virus and compound). Once the cells were added in the plates, the plates were incubated in a fully humidified incubator (37° C., 5% CO2) until the next day. Then, DENV-1 strain TC974#666, DENV-2 strain 16681, DENV-3 strain H87 or DENV-4 strains H241 or EDEN were added. […] In parallel, 25 μL of culture medium was added to the cell controls. Next, the plates were incubated for 3 days in a fully humidified incubator (37° C., 5% CO2). After 3 days, the supernatant was removed from the wells and the cells were washed twice with ice-cold PBS (˜100 μL). The cell pellets within the 96-well plates were stored at −80° C. for at least 1 day. Next, RNA was extracted using the Cells-to-CT™ lysis kit, according to the manufacture's guideline (Applied Biosystems). The cell lysates can be stored at −80° C. or immediately used in the reverse transcription step. In preparation of the reverse transcription step, mix A (table 3A) was prepared and 7.57 μL/well was dispensed in a 96-well plate. After addition of 5 μL of the cell lysates, a five minute denaturation step at 75° C. was performed (table 3B). Afterwards, 7.43 μL of mix B was added (table 3C) and the reverse transcription step was initiated (table 3D) to generate cDNA.
Finally, a RT-qPCR mix was prepared, mix C (table 4A), dispensed in 96-well LightCycler qPCR plates to which 3 μL of cDNA was added and the qPCR was performed according to the conditions in table 4B on a LightCycler 480. Using the LightCycler software and an in-house LIMS system, dose response curves for each compound were calculated and the half maximal effective concentration (EC50) and the half maximal cytotoxic concentration (CO50) were determined (Tables 6-9).

in vitro [2] = details: African green monkey, CC50
Protocol: (§2) Potential cytotoxic effects of the compounds were evaluated in uninfected Vero cells. Cells were seeded at 4×10^4 cells/well in a 96-well plate in the presence of two-, three- or five-fold serial dilutions (ranging from 50 μg/mL-0.0038 μg/mL, 50 μg/mL-0.0076 μg/mL, and 50 μg/mL-0.00013 μg/mL, respectively) of compound and incubated for 4 to 7 days. Culture medium was discarded and 100 μL 3-(4,5-dimethylthiazol-2-yl)-5-(3-carboxymethoxyphenyl)-2-(4-sulfophenyl)-2H-tetrazolium/phenazinemethosulfate (MTS/PMS; Promega, Leiden, The Netherlands) in PBS was added to each well. Following a 2-hour incubation period at 37° C., the optical density was determined at 498 nm. Cytotoxic activity was calculated using the following formula: % cell viability=100×(ODCompound/ODCC), where ODcompound and ODCC correspond to the optical density at 498 nm of the uninfected cell cultures treated with compound and that of uninfected, untreated cell cultures, respectively. The 50% cytotoxic concentration (i.e., the concentration that reduces the total cell number with 50%; CC50) was calculated using linear interpolation (Tables 7 and 8).

uninfected Vero cells = test: in vitro; details: African green monkey
Protocol: as §2

in vitro [3] = details: African green monkey, CC50; remark: listed apart in the source
Protocol: as §1

Row | Compound | CC50 (Vero cells) [µM] | CC50 at 3 days (in vitro [1]) [µM] | CC50 (in vitro [2]) [µM] | CC50 (uninfected Vero cells) [µM] | CC50 (in vitro [3]) [µM]
1 | COc1cc(NC(C(=O)c2c[nH]c3c(Cl)c(OC)ccc23)c2ccc(F)cc2OC)cc(OCCO)c1 (single isomer, unassigned) [Compound 8A, 1-(7-chloro-6-methoxy-1H-indol-3-yl)-2-(4-fluoro-2-methoxyphenyl)-2-((3-(2-hydroxyethoxy)-5-methoxyphenyl)amino)ethanone] | 8.6 | 10 | 9.6 | – | –
2 | COc1cc(NC(C(=O)c2c[nH]c3cc(Cl)ccc23)c2ccc(F)cc2OC)cc(OCCO)c1 (single isomer, unassigned) [Compound 4A, 1-(6-chloro-1H-indol-3-yl)-2-(4-fluoro-2-methoxyphenyl)-2-((3-(2-hydroxyethoxy)-5-methoxyphenyl)amino)ethanone] | 5.9 | – | 9.7 | 18 | –
3 | COc1cc(NC(C(=O)c2c[nH]c3cc(F)c(F)cc23)c2ccc(F)cc2OC)cc(OCCO)c1 (single isomer, unassigned) [Compound 10B, 1-(5,6-difluoro-1H-indol-3-yl)-2-(4-fluoro-2-methoxy-phenyl)-2-((3-(2-hydroxyethoxy)-5-methoxyphenyl)amino)ethanone] | 6.9 | – | 7.3 | 11 | –
4 | COc1cc(NC(C(=O)c2c[nH]c3cc(OC)c(C)cc23)c2ccc(F)cc2OC)cc(OCCO)c1 (single isomer, unassigned) [Compound 6A, 2-(4-fluoro-2-methoxyphenyl)-2-((3-(2-hydroxyethoxy)-5-methoxyphenyl)amino)-1-(6-methoxy-5-methyl-1H-indol-3-yl)ethanone] | – | – | 9.7 | 17 | 7.5
5 | COc1cc(NC(C(=O)c2c[nH]c3c(C)cc(F)cc23)c2ccc(F)cc2OC)cc(OCCO)c1 (single isomer, unassigned) [Compound 9B, 2-(4-fluoro-2-methoxyphenyl)-1-(5-fluoro-7-methyl-1H-indol-3-yl)-2-((3-(2-hydroxyethoxy)-5-methoxyphenyl)amino)ethanone] | 5.5 | 3.8 | 8.8 | 14 | –
6 | COc1cc(NC(C(=O)c2c[nH]c3cc(OC)c(F)cc23)c2ccc(F)cc2OC)cc(OCCO)c1 (single isomer, unassigned) [Compound 7A, 2-(4-fluoro-2-methoxyphenyl)-1-(5-fluoro-6-methoxy-1H-indol-3-yl)-2-((3-(2-hydroxyethoxy)-5-methoxyphenyl)amino)ethanone] | – | 3.8 | 16 | 18 | > 8.6
7 | COc1cc(NC(C(=O)c2c[nH]c3c(C)c(Cl)ccc23)c2ccc(F)cc2OC)cc(OCCO)c1 (single isomer, unassigned) [Compound 3A, 1-(6-chloro-7-methyl-1H-indol-3-yl)-2-(4-fluoro-2-methoxyphenyl)-2-((3-(2-hydroxyethoxy)-5-methoxyphenyl)amino)ethanone] | – | 4.1 | 7.6 | 13 | –
8 | COc1cc(NC(C(=O)c2c[nH]c3c(C)c(F)ccc23)c2ccc(F)cc2OC)cc(OCCO)c1 (single isomer, unassigned) [Compound 2B, 2-(4-fluoro-2-methoxyphenyl)-1-(6-fluoro-7-methyl-1H-indol-3-yl)-2-((3-(2-hydroxyethoxy)-5-methoxyphenyl)amino)ethanone] | 5.3 | 3.6 | 9.2 | 15 | –
9 | COc1cc(NC(C(=O)c2c[nH]c3c(F)c(F)ccc23)c2ccc(F)cc2OC)cc(OCCO)c1 (single isomer, unassigned) [Compound 5B, 1-(6,7-difluoro-1H-indol-3-yl)-2-(4-fluoro-2-methoxyphenyl)-2-((3-(2-hydroxyethoxy)-5-methoxyphenyl)amino)ethanone] | 6.5 | – | 12 | 11 | –
10 | COc1cc(NC(C(=O)c2c[nH]c3c(F)cc(C)cc23)c2ccc(F)cc2OC)cc(OCCO)c1 (single isomer, unassigned) [Compound 12B, 2-(4-fluoro-2-methoxyphenyl)-1-(7-fluoro-5-methyl-1H-indol-3-yl)-2-((3-(2-hydroxyethoxy)-5-methoxyphenyl)amino)ethanone] | 5.5 | 5 | 9.4 | 14 | –
11 | COc1cc(NC(C(=O)c2c[nH]c3cc(F)ccc23)c2ccc(F)cc2OC)cc(OCCO)c1 (single isomer, unassigned) [Compound 1A, 1-(6-fluoro-1H-indol-3-yl)-2-(4-fluoro-2-methoxyphenyl)-2-((3-(2-hydroxyethoxy)-5-methoxyphenyl)amino)ethanone] | 8.4 | – | 13 | – | –
12 | COc1cc(NC(C(=O)c2c[nH]c3c(C)c(OC)ccc23)c2ccc(F)cc2OC)cc(OCCO)c1 (single isomer, unassigned) [Compound 11A, 2-(4-fluoro-2-methoxyphenyl)-2-((3-(2-hydroxyethoxy)-5-methoxyphenyl)amino)-1-(6-methoxy-7-methyl-1H-indol-3-yl)ethanone] | 8.9 | 6.3 | 11 | 12 | –
